Patent publication US11554097B2, “Recombinant production of hybrid lipid-biopolymer materials that self-assemble and encapsulate agents” (Duke University, priority 2017, dated 2023)

Columns and labels:
[1] = Encapsulated drug stability, dialysis against PBS; assay type: physicochemical
Procedure: Encapsulated drug stability: To measure the encapsulated drug's stability, we selected the encapsulated DOX M-EL[…],80 sample as a model system. […] Free DOX and encapsulated DOX were both made to 400 μM and 250 μL was added with a syringe to small volume Slide-a-Lyzer dialysis cassettes with a 3,500 Da molecular weight cutoff. […] At various time points, 3 mL of the filtrate was removed and replaced with fresh PBS. The fluorescence of the starting sample, filtrate, and retentate were measured in duplicate with a Wallac 1420 Victor3 Plate Reader (Perkin Elmer). Relative fluorescing units were converted to DOX concentrations using a standard curve made using serial dilution of free and encapsulated DOX. […] The cumulative DOX released was calculated and plotted as a function of dialysis time. […] At the end of the one week study, the retentate from each sample was removed and measured.

[2] = cited from earlier work

COc1cccc2c1C(=O)c1c(O)c3c(c(O)c1C2=O)C[C@@](O)(C(=O)CO)C[C@@H]3O[C@H]1C[C@H](N)[C@H](O)[C@H](C)O1 [DOXFree, doxorubicin]
DOX filtered out of cassette ([1]; after a week at 37° C.): 99%
time to reach equilibrium in dialysis ([1]; dialysis against PBS, 37° C.): ≤ 24 h
octanol-water distribution coefficient (log D pH 7.5) [2]: 2.4
